Test results taken from ChEMBL document CHEMBL1201862, “PubChem BioAssay data set” (2004).
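All cell lines were grown in 96-well plates and treated with compound for 48 hours. GI50: concentration for 50% inhibition of growth.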 Activity calls are given as the source filed them. Cut-off read from the data, not from the text of the source: active = GI50 up to about 1.1 µM and inactive = higher.

Tests used:
Experiment in all cases: NCI tumour cell line growth inhibition, 48 h
RPMI-8226 = tested on: RPMI-8226
MDA-N = tested on: MDA-N
SR = tested on: SR
UACC-62 = tested on: UACC-62
EKVX = tested on: EKVX
NCI-H226 = tested on: NCI-H226
OVCAR-5 = tested on: OVCAR-5
HOP-62 = tested on: HOP-62
Malme-3M = tested on: Malme-3M
NCI-H522 = tested on: NCI-H522
BT-549 = tested on: BT-549
SK-OV-3 = tested on: SK-OV-3
SK-MEL-2 = tested on: SK-MEL-2
SK-MEL-28 = tested on: SK-MEL-28
COLO 205 = tested on: COLO 205
CCRF-CEM = tested on: CCRF-CEM
NCI-H460 = tested on: NCI-H460
HOP-92 = tested on: HOP-92
K562 = tested on: K562
OVCAR-3 = tested on: OVCAR-3

CCC1(O)CC(OC2CC(N(C)C)C(OC3CC(O)C(OC4CCC(=O)C(C)O4)C(C)O3)C(C)O2)c2c(cc3c(c2O)C(=O)c2c(O)ccc(O)c2C3=O)C1C(=O)OC (stereo not given)
GI50 (RPMI-8226): < 0.01 µM (active) | GI50 (MDA-N): < 0.01 µM (active) | GI50 (SR): < 0.01 µM (active) | GI50 (UACC-62): < 0.01 µM (active) | GI50 (EKVX): < 0.01 µM (active) | GI50 (NCI-H226): < 0.01 µM (active) | GI50 (OVCAR-5): 0.0123 µM (active) | GI50 (HOP-62): < 0.01 µM (active) | GI50 (Malme-3M): < 0.01 µM (active) | GI50 (NCI-H522): < 0.01 µM (active) | GI50 (BT-549): < 0.0152 µM (active) | GI50 (SK-OV-3): < 0.01 µM (active) | GI50 (SK-MEL-2): < 0.01 µM (active) | GI50 (SK-MEL-28): < 0.01 µM (active) | GI50 (COLO 205): < 0.01 µM (active) | GI50 (CCRF-CEM): < 0.01 µM (active) | GI50 (NCI-H460): < 0.01 µM (active) | GI50 (HOP-92): < 0.01 µM (active) | GI50 (K562): < 0.01 µM (active) | GI50 (OVCAR-3): 0.0101 µM (active)

O=C1c2ccccc2NC(=S)[C@@H]2CCCN12
GI50 (RPMI-8226): > 100 µM (inactive) | GI50 (MDA-N): > 100 µM (inactive) | GI50 (SR): > 100 µM (inactive) | GI50 (UACC-62): > 100 µM (inactive) | GI50 (EKVX): > 100 µM (inactive) | GI50 (NCI-H226): > 100 µM (inactive) | GI50 (OVCAR-5): > 100 µM (inactive) | GI50 (HOP-62): > 100 µM (inactive) | GI50 (Malme-3M): > 100 µM (inactive) | GI50 (NCI-H522): > 100 µM (inactive) | GI50 (BT-549): > 100 µM (inactive) | GI50 (SK-OV-3): > 100 µM (inactive) | GI50 (SK-MEL-2): > 100 µM (inactive) | GI50 (SK-MEL-28): > 100 µM (inactive) | GI50 (COLO 205): > 100 µM (inactive) | GI50 (CCRF-CEM): > 100 µM (inactive) | GI50 (NCI-H460): > 100 µM (inactive) | GI50 (HOP-92): > 100 µM (inactive) | GI50 (K562): > 100 µM (inactive) | GI50 (OVCAR-3): > 100 µM (inactive)

CCN(CC)Cc1nc2sc3c(c2c(=O)n1-c1ccccc1)CCCC3
GI50 (RPMI-8226): 26.7 µM (inactive) | GI50 (MDA-N): 19.7 µM (inactive) | GI50 (SR): 34.5 µM (inactive) | GI50 (UACC-62): 15.4 µM (inactive) | GI50 (EKVX): 19.8 µM (inactive) | GI50 (NCI-H226): 15.2 µM (inactive) | GI50 (OVCAR-5): 19.7 µM (inactive) | GI50 (HOP-62): 27.4 µM (inactive) | GI50 (Malme-3M): 23.3 µM (inactive) | GI50 (NCI-H522): 21.8 µM (inactive) | GI50 (BT-549): 28.3 µM (inactive) | GI50 (SK-OV-3): 23.7 µM (inactive) | GI50 (SK-MEL-2): 19.1 µM (inactive) | GI50 (SK-MEL-28): 35.4 µM (inactive) | GI50 (COLO 205): 17.7 µM (inactive) | GI50 (CCRF-CEM): 28.4 µM (inactive) | GI50 (NCI-H460): 19.6 µM (inactive) | GI50 (HOP-92): 22 µM (inactive) | GI50 (K562): 35.2 µM (inactive) | GI50 (OVCAR-3): 17.2 µM (inactive)

N[C@H]1c2c(Br)sc(Br)c2C(=O)[C@H]1O
GI50 (RPMI-8226): 27.4 µM (inactive) | GI50 (MDA-N): 13.2 µM (inactive) | GI50 (SR): 2.69 µM (inactive) | GI50 (UACC-62): 6.79 µM (inactive) | GI50 (EKVX): 12.9 µM (inactive) | GI50 (NCI-H226): 22.2 µM (inactive) | GI50 (OVCAR-5): 22 µM (inactive) | GI50 (HOP-62): 18.2 µM (inactive) | GI50 (Malme-3M): 11.6 µM (inactive) | GI50 (NCI-H522): 3.18 µM (inactive) | GI50 (BT-549): 6.3 µM (inactive) | GI50 (SK-OV-3): 12.3 µM (inactive) | GI50 (SK-MEL-2): 23.9 µM (inactive) | GI50 (SK-MEL-28): 10.3 µM (inactive) | GI50 (COLO 205): 6.18 µM (inactive) | GI50 (CCRF-CEM): 2.72 µM (inactive) | GI50 (NCI-H460): 19.2 µM (inactive) | GI50 (HOP-92): 21.5 µM (inactive) | GI50 (K562): 3.44 µM (inactive) | GI50 (OVCAR-3): 7.36 µM (inactive)

c1ccc2cc(NCNc3ccc4ccccc4c3)ccc2c1
GI50 (RPMI-8226): 6.1 µM (inactive) | GI50 (MDA-N): 4.33 µM (inactive) | GI50 (SR): 2.42 µM (inactive) | GI50 (UACC-62): 14.7 µM (inactive) | GI50 (EKVX): 14.6 µM (inactive) | GI50 (NCI-H226): 17.2 µM (inactive) | GI50 (OVCAR-5): 21.3 µM (inactive) | GI50 (HOP-62): 19.5 µM (inactive) | GI50 (Malme-3M): 0.927 µM (active) | GI50 (NCI-H522): 17.6 µM (inactive) | GI50 (BT-549): 24.9 µM (inactive) | GI50 (SK-OV-3): 33.6 µM (inactive) | GI50 (SK-MEL-2): 8.17 µM (inactive) | GI50 (SK-MEL-28): 34.8 µM (inactive) | GI50 (COLO 205): 18.8 µM (inactive) | GI50 (CCRF-CEM): 11.8 µM (inactive) | GI50 (NCI-H460): 13.4 µM (inactive) | GI50 (HOP-92): 1.27 µM (inactive) | GI50 (K562): 0.951 µM (active) | GI50 (OVCAR-3): 5.69 µM (inactive)

C[C@]12CC[C@H](O)C[C@@H]1CC[C@@H]1[C@@H]2CC[C@]2(C)[C@@H](c3cc(C(F)(F)F)[nH]n3)CC[C@@H]12
GI50 (RPMI-8226): 3.96 µM (inactive) | GI50 (MDA-N): 10.8 µM (inactive) | GI50 (SR): 3.87 µM (inactive) | GI50 (UACC-62): 14.1 µM (inactive) | GI50 (EKVX): 10.8 µM (inactive) | GI50 (NCI-H226): 14.6 µM (inactive) | GI50 (OVCAR-5): 10.5 µM (inactive) | GI50 (HOP-62): 7.38 µM (inactive) | GI50 (Malme-3M): > 37.3 µM (inactive) | GI50 (NCI-H522): > 22.5 µM (inactive) | GI50 (BT-549): 8.39 µM (inactive) | GI50 (SK-OV-3): 13.8 µM (inactive) | GI50 (SK-MEL-2): 16.2 µM (inactive) | GI50 (SK-MEL-28): 13.1 µM (inactive) | GI50 (COLO 205): 4.13 µM (inactive) | GI50 (CCRF-CEM): 0.957 µM (active) | GI50 (NCI-H460): 3.18 µM (inactive) | GI50 (HOP-92): 2.74 µM (inactive) | GI50 (K562): 3.25 µM (inactive) | GI50 (OVCAR-3): 10.1 µM (inactive)
